Several values for one entry are separate records, joined by “and”; a condition that tells them apart may be missing. Identical values can stand only once.
Columns and labels:
rat lymphocytes = test: Binding to sections of lymphoid organs (lymph nodes and Peyer's patch); assay type: cell-based; conditions: control level binding very low, result cannot be relied on
Experimental: Sections of lymphoid organs (lymph nodes and Peyer's patch) were tested as above.

[1] = system: T-cell lines MOLT4 and ARR on thymic epithelial cells; test: Binding of cultured T-cells to thymic epithelial cells (DPM); assay type: cell-based, human; conditions: lectin-treated T-cells with terminal galactose residues, FIG. 4
Experimental: The effects of the lectin on the binding of cultured T-cells to thymic epithelial cells were further tested according to the protocol of Singer et al., (Proc. Natl. Acad. Sci. (1986) 83:6588-92). T-cell lines MOLT4 and ARR (a T-cell line with sialic-acid-terminating glycoproteins) were incubated with tritiated thymidine. Next, the cells were treated with neuraminidase (which cleaves terminal sialic acids from the glycoproteins on ARR cells and leaves terminal galactose), galactosidase, endolactosaminidase or no enzyme. After this step, they cells were incubated with and without lectin. All the treatment and control groups of T-cells were layered over thymic epithelial cells, incubated and washed as described in Singer et al. Lastly, the amount of bound T-cells was quantitated by […] per minute (DPM).

BALB/c and C57B/6 mice = test: Experimental autoimmune myasthenia gravis (EAMG): clinical signs of neuromuscular dysfunction; assay type: in vivo, mouse
Excerpt: Experimental autoimmune myasthenia gravis (EAMG) is an antibody-mediated autoimmune disease responding to acetylcholine receptors (AChR). This condition in mice is a recognized model for studying the effects of the autoimmune response on neuromuscular transmission (Levi, G. et al., Eur. J. Immunol. (1983) 13:500-507; Lefvert, A. K. et al., Scand. J. Immunol. (1978) 8:525; Lefvert, A. K. et al., J. Neuro. Immunol. (1985) 9:41; Lefvert, A. K. et al., Eur. J. Immunol. (1982) 12:790). It appears that myasthenia gravis is mediated by T helper cells, which produce acetylcholine receptor antibodies. The disease is induced in mice by injection of acetylcholine receptor. The acetylcholine receptor is obtained from the electric organ of the ray Torpedo marmorata and purified by affinity chromatography on Naja naja siamensis neurotoxin crosslinked to Sephadex.
Young adult female BALB/c and C57B/6 mice (2-4 months of age) were used because they differ in EAMG susceptibility. The mice were injected subcutaneously with 10 μg of purified acetylcholine receptor, in Freund's complete adjuvant without and with the 14 kD-β-gal lectin.
Blood was obtained after 3 days and after 1, 2, 3 and 4 weeks. To follow the development of the disease, the mice were observed daily for signs of neuromuscular dysfunction and after 10 days subjected to forced exercise using repetitive grasping, swimming and inverted hang. These exercises were repeated after warming under a heat lamp at 35° C. for 5 min.

lymph node cells = test: Proliferative response of draining lymph node cells of GPBP/CFA-injected rats; assay type: in vivo, rat
Experimental: At the indicated times after injection of 50 μg GPBP/CFA, lymph nodes draining the site of injection were collected and tested for a proliferative response to GPBP, purified protein derivative (PPD), and the T-cell mitogen, Concanavalin A (ConA). Consistent with the DTH test, lymph node cells of the lectin-treated rats had low or absent responses to both GPBP and PPD relative to control rats, especially on days 14 and 21 during which EAE onset occurs.

[2] = Antibodies specific for the lectin in sera of treated rats (ELISA); assay type: in vivo, rat
T-cell lines = test: Selection of GPBP-specific T-cell lines from draining lymph nodes; assay type: in vivo, rat; conditions: lectin-treated rats
Excerpt: In a follow-up experiment, T-cell lines were selected from the draining lymph nodes.

SJL/J mice = test: EAE relapse murine model; assay type: in vivo, mouse; conditions: 50 μg i.v. days 13 and 15, 100 μg i.v. daily days 18-24, FIG. 13
Excerpt: In mice, symptoms of EAE can be made to occur in cyclical fashion by boosting the animals with antigen following each cycle, and each cycle becomes more severe until death ultimately occurs. This is a useful model in which to determine therapeutic efficacy, since it closely mimics both the chronic disease relapses and the acute demyelination associated with multiple sclerosis. In this experiment, 20 female SJL/J mice were immunized with lyophilized spinal cord extract dissolved in PBS plus CFA on days 0, 7 and 21. Ten mice were injected with recombinant lectin, and ten mice were given buffer only. The lectin-treated mice received 50 μg lectin on days 13 and 15 intravenously in the tail vein, and an additional 100 μg i.v. daily from day 18 through day 24. Mice were followed until death or sacrifice at day 42.
The results in FIG. 13 are mean clinical scores for control and lectin-treated mice.

Lewis rats = test: Skin allografts (Brown Norway skin on Lewis rats); assay type: in vivo, rat; design: key to Hair Growth / Hair Growth, Mean + SD column: whether or not (+ or −) hair growth was restored in the tissue; whether or not (+ or −) hair growth was restored in the tissue
Experimental: The work in this report was done in the laboratory of Drs. Arthur Vandenbark and Halina Offner at the Oregon VA Medical Center. Brown Norway rat skin was transplanted onto the back of Lewis rats. Identical grafts were done on both sides of each animal's back and the results of each side (separated by commas) were shown for each parameter in Tables 9 and 10. […] A 250 μg/animal dose of lectin was administered i.v. daily on days 2-17.
The protocols for the studies reported in Tables 9 and 10 differed only in that the lectin was delivered for four additional days up to day 21 (see Table 10).

Spleen Cells = test: In vivo effect of lectin on phenotypes of lymphocytes (antibody staining); design: species or system rat; conditions: for % positive / F^L / % CHANGE IN POSITIVES: Spleen Cells
[3] = Day 2 to Day 17, individual animals, first-listed graft side, listed as rIML-1
[4] = Day 2 to Day 17, individual animals, second-listed graft side, listed as rIML-1
[5] = Day 2 to Day 21, individual animals, first-listed graft side, listed as rIML-1
[6] = Day 2 to Day 21, individual animals, second-listed graft side, listed as rIML-1
[7] = antibody IgG, lectin-treated rats

## Lectin: Soluble 14 kD β-galactoside-binding HL-60/placenta lectin of FIG. 1 (SEQ ID NO:2), prepared recombinantly in E. coli
Rat lymphocytes
  Effect on binding of rat lymphocytes to lymphoid organ sections: no noticeable effect
[1]
  Binding of T-cells to thymic epithelial cells: appreciably bound
BALB/c and C57B/6 mice; BALB/c, Receptor + 2.5 μg Lectin s.c.
  Mice Showing Clinical Signs of Neuromuscular Dysfunction (%): 18%
BALB/c and C57B/6 mice; BALB/c, Receptor + 12 μg Lectin s.c.
  Mice Showing Clinical Signs of Neuromuscular Dysfunction (%): 4%
BALB/c and C57B/6 mice; C57B/6, Receptor + 2.5 μg Lectin s.c.
  Mice Showing Clinical Signs of Neuromuscular Dysfunction (%): 59%
BALB/c and C57B/6 mice; C57B/6, Receptor + 12 μg Lectin s.c.
  Mice Showing Clinical Signs of Neuromuscular Dysfunction (%): 11%
BALB/c and C57B/6 mice; both strains, higher lectin dose levels
  neuromuscular deterioration: markedly slowed
Lymph node cells; lectin-treated rats relative to control, especially days 14 and 21, FIG. 12
  lymph node cell proliferative responses to GPBP and PPD: low or absent
Lymph node cells; lectin-treated rats, FIG. 12
  lymph node cell responses to ConA: normal or augmented
[2]
  antibodies specific for the lectin in sera of treated rats: did not contain
T-cell lines
  GPBP-specific T-cell lines from draining lymph nodes: no lines could be established
SJL/J mice
  mean clinical scores, first cycle: improved clinical scores
  survival and clinical scores, second cycle: improved survival and clinical scores
Lewis rats; 250 μg/animal i.v. daily days 2-17, versus control
  delay of rejection of the grafts: 7 days
Lewis rats; Day 2 to Day 17
  Rejection (on day), Mean ± SD: 17 ± 2 days
Lewis rats; [3]
  Degeneration (on day): 15 day and 11, day and 14 day
  Hair Growth: +, + (3×) and − and +
  Rejection (on day): 16 day and 13, day and 16, day and 18, day (2×)
Lewis rats; [4]
  Degeneration (on day): 16 day (2×) and 13 day
  Hair Growth: +, + (3×) and +
  Rejection (on day): 17 day and 15 day and 16 day and 18 day (2×)
Lewis rats; Day 2 to Day 17, individual animals, listed as rIML-1
  Histology: 0
Lewis rats; Day 2 to Day 21
  Degeneration (on day), Mean + SD: 17 ± 2 days
  Hair Growth, Mean + SD column: +
  Rejection (on day), Mean + SD: 19 ± 2 days
Lewis rats; [5]
  Degeneration (on day): 15 day (3×) and 18, 18 day and 17 day and 18 day
  Hair Growth: +, + (5×) and −
  Rejection (on day): 18 day (2×) and 19, 19 day and 21, 21 day and 17 day and 19 day
Lewis rats; [6]
  Degeneration (on day): 19 day (3×) and 18 day and 18, 18 day and 11 day
  Hair Growth: +, + (5×) and +
  Rejection (on day): 23 day and 19, 19 day and 21, 21 day and 13 day and 20 day and 22 day
Spleen Cells; antibody 0X6
  % positive: 15.6%
  F^L: 375
Spleen Cells; antibody 0X6, lectin vs control
  % CHANGE IN POSITIVES: 0%
Spleen Cells; antibody 0X8
  % positive: 41.2%
Spleen Cells; antibody 0X8 (suppressor T-cells)
  F^L: 323
Spleen Cells; antibody 0X8, lectin vs control
  % CHANGE IN POSITIVES: +32%
Spleen Cells; antibody 0X12
  % positive: 15.4%
  F^L: 363
Spleen Cells; antibody 0X12, lectin vs control
  % CHANGE IN POSITIVES: 0%
Spleen Cells; [7]
  % positive: 24.3%
  F^L: 129
Spleen Cells; antibody W3/13
  % positive: 85.9%
Spleen Cells; antibody W3/13 (total T-cells)
  F^L: 311
Spleen Cells; antibody W3/13, lectin vs control
  % CHANGE IN POSITIVES: −19%
Spleen Cells; antibody W3/25
  % positive: 67.2%
Spleen Cells; antibody W3/25 (helper T-cells)
  F^L: 161
Spleen Cells; antibody W3/25, lectin vs control
  % CHANGE IN POSITIVES: −24%
Spleen Cells; lectin-treated animals
  decrease in the numbers of spleen helper T-cells (w3/25 antibody reactive): 19%
  decrease in the numbers of spleen total T-cells (w3/13 antibody reactive): 24%
  increase in the number of spleen suppressor T-cells: 32%

— patent publication US6406679B1, “Use of HL-60-related lectins in drug delivery and detection of lectin-expressing cells” (Incyte Pharmaceuticals, Inc., priority 1992, dated 2002)
